The text below walks through data of patent publication US20230265151A1, “GIP/GLP1 CO-AGONIST COMPOUNDS” (priority 2020, published 2023).

Where two headings read alike, the source gives them in different places. Bounds are passed on as bounds.

Broadly, the Emax is the greatest response seen or fitted, relative to the assay's reference. Broadly, the EC50 is the concentration giving half of the maximal effect.

Holding throughout (type): cell-based
One test concerns the target hGLP-1R (Homo sapiens, UniProt P43220). As to the kind of experiment: Functional cAMP formation (HTRF) in HEK-293 clonal cells expressing hGLP-1R, 0.1% bovine casein, without or with 1.0% human serum albumin. Set-up: expressed in transfected cells. The following applies: for EC50: geometric mean. In a few lines: (§1)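 Cells were stimulated with peptide for 30 min at 37° C, then lysed in buffer carrying cAMP-d2 and anti-cAMP Eu3+-cryptate for a competitive HTRF read after at least 60 min at room temperature. The 665/620 nm ratio was converted to nM cAMP against a standard curve.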
(Changes in cAMP serve as a functional read-out for many G protein-coupled receptors.)

Another test has as its target T1, hGCGR (Homo sapiens, UniProt P47871).
T1 construct: expressed in transfected cells
Nature of the test: Functional cAMP formation (HTRF) in HEK-293 clonal cells expressing hGCGR, 0.1% bovine casein, without or with 1.0% human serum albumin. The following applies: geometric mean. In a few lines:
as §1

The next test concerns the target T2, hGIPR (Homo sapiens, UniProt P48546).
T2 construct: expressed in transfected cells
T2 sequence (P48546 22-466): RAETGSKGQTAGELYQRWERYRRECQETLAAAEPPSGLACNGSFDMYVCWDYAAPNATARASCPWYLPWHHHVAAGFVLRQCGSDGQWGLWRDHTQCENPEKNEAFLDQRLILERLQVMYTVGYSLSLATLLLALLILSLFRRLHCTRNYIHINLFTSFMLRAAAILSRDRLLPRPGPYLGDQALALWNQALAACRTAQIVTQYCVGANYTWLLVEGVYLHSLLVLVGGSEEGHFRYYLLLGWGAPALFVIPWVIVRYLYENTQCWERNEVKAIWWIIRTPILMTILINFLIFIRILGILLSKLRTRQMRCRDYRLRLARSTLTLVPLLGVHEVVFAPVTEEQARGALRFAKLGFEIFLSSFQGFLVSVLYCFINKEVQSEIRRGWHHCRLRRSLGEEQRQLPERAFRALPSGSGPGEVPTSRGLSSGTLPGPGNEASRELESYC
Nature of the test: Functional cAMP formation (HTRF) in HEK-293 clonal cells expressing hGIPR, 0.1% bovine casein, without or with 1.0% human serum albumin. To be noted: for EC50: geometric mean. The method in brief: as §1

The mark [1] stands for this setting: hGCGR EC50, nM (SEM, n), cAMP, incubated at 37° C., 0.1% bovine casein (no human serum albumin).
Where [2] appears, read: HEK293, read-out: hGIPR Emax, % ± SEM, percent of maximal response to GIP(1-42)NH2, 37° C., 0.1% bovine casein, arithmetic mean.
The mark [3] stands for this setting: 0.1% bovine casein and 1.0% human serum albumin, 37° C., read-out: hGLP-1R EC50, nM (SEM, n).
Where [4] appears, read: cAMP, incubated at 37° C., 0.1% bovine casein (no human serum albumin), read-out: hGLP-1R EC50, nM (SEM, n).
The mark [5] stands for this setting: 0.1% bovine casein and 1.0% human serum albumin, 37° C., read-out: hGCGR EC50, nM (SEM, n).
Setting [6] is: cAMP, incubated at 37° C., 0.1% bovine casein (no human serum albumin), read-out: hGCGR EC50, nM (SEM, n).
Setting [7] is: 0.1% bovine casein and 1.0% human serum albumin, 37° C., read-out: hGIPR EC50, nM (SEM, n).
[8] abbreviates: HEK293, 0.1% bovine casein and 1.0% human serum albumin, 37° C., percent of maximal response to GIP(1-42)NH2, read-out: hGIPR Emax, % ± SEM.
Setting [9] is: HEK293, percent of maximal response to GIP(1-42)NH2, 37° C., 0.1% bovine casein, arithmetic mean, read-out: hGIPR Emax, % ± SEM.
Where [10] appears, read: cAMP, incubated at 37° C., 0.1% bovine casein (no human serum albumin), read-out: hGIPR EC50, nM (SEM, n).

T1 sequence (P47871 26-477): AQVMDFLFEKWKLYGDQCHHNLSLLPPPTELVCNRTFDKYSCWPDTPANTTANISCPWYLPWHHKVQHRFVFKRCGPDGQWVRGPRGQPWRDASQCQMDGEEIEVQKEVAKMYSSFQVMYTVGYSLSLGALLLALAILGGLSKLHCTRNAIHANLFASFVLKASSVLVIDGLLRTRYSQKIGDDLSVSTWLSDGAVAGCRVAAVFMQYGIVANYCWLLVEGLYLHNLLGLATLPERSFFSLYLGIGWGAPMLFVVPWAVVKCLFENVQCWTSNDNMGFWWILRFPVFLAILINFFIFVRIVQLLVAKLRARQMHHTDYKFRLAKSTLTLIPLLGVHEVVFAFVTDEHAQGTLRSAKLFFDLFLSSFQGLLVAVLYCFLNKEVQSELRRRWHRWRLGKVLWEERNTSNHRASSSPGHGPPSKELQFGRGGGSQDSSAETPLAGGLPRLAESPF
hGLP-1R, sequence (P43220 24-463): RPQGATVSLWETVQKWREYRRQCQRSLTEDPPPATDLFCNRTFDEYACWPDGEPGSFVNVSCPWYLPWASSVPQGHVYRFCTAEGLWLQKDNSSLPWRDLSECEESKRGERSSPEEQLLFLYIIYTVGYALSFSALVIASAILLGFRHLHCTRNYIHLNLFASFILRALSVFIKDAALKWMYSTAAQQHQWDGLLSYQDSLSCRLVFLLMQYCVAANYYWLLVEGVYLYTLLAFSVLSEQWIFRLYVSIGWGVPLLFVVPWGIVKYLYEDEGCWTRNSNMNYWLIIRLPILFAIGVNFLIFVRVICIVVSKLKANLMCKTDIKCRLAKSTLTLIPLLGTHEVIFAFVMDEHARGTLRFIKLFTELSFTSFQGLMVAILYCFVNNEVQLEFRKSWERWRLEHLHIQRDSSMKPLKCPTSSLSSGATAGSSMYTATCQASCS

Take `CC[C@H](C)[C@H](NC(=O)[C@H](CC(C)C)NC(=O)[C@](C)(Cc1ccc(O)cc1)NC(=O)[C@H](CCCCNC(=O)COCCOCCNC(=O)COCCOCCNC(=O)[C@@H](N)CCCCNC(=O)CCCCCCCCCCCCC(=O)O)NC(=O)[C@@H](NC(=O)[C@H](Cc1ccccc1)NC(=O)[C@H](CCC(=O)O)NC(=O)C(C)(C)NC(=O)[C@H](CCC(N)=O)NC(=O)[C@H](C)NC(=O)[C@H](CCCCNC(=O)COCCOCCNC(=O)COCCOCCNC(=O)[C@@H](N)CCCCNC(=O)CCCCCCCCCCCCC(=O)O)NC(=O)[C@H](CCCN)NC(=O)[C@H](CC(=O)O)NC(=O)[C@H](CC(C)C)NC(=O)[C@](C)(CC(C)C)NC(=O)[C@@H](NC(=O)C(C)(C)NC(=O)[C@@H](NC(=O)[C@H](CC(=O)O)NC(=O)[C@H](CO)NC(=O)[C@@H](NC(=O)[C@](C)(Cc1ccccc1F)NC(=O)[C@@H](NC(=O)CNC(=O)[C@H](CCC(=O)O)NC(=O)C(C)(C)NC(=O)[C@@H](N)Cc1ccc(O)cc1)[C@@H](C)O)[C@@H](C)O)C(C)C)[C@@H](C)CC)[C@@H](C)CC)C(=O)N[C@@H](CCC(=O)O)C(=O)NCC(=O)NCC(=O)N1CCC[C@H]1C(=O)N[C@@H](CO)C(=O)N[C@@H](CO)C(=O)NCC(=O)N[C@@H](C)C(=O)N1CCC[C@H]1C(=O)N1CCC[C@H]1C(=O)N1CCC[C@H]1C(=O)N[C@@H](CO)C(N)=O` [Example 166]: the Emax on hGLP-1R (HEK293, read-out: hGLP-1R Emax, % ± SEM, percent of maximal response to GLP-1(7-36)NH2, 37° C., 0.1% bovine casein, arithmetic mean) was 90.3%; on hGIPR (setting [2]), 97%. Also, the EC50 was 0.192 nM on hGLP-1R (hGLP-1R EC50, nM (SEM, n), cAMP, incubated at 37° C., 0.1% bovine casein (no human serum albumin)) and greater than 9950 nM on hGCGR (setting [1]).
As to `CC[C@H](C)[C@H](NC(=O)[C@H](CC(C)C)NC(=O)[C@](C)(Cc1ccc(O)cc1)NC(=O)[C@@H](CCC(=O)O)NC(=O)[C@@H](NC(=O)[C@H](Cc1ccccc1)NC(=O)[C@H](CCCCNC(=O)COCCOCCNC(=O)CC[C@H](NC(=O)CCCc1ccc(C(C)(C)C)cc1)C(=O)O)NC(=O)C(C)(C)NC(=O)[C@H](CCC(N)=O)NC(=O)[C@H](C)NC(=O)[C@H](CCCCNC(=O)COCCOCCNC(=O)CC[C@H](NC(=O)CCCc1ccc(C(C)(C)C)cc1)C(=O)O)NC(=O)[C@H](CCCN)NC(=O)[C@H](CC(=O)O)NC(=O)[C@H](CC(C)C)NC(=O)[C@](C)(CC(C)C)NC(=O)[C@@H](NC(=O)[C@H](CO)NC(=O)[C@H](Cc1ccncc1)NC(=O)[C@H](CC(=O)O)NC(=O)[C@H](CO)NC(=O)[C@@H](NC(=O)[C@](C)(Cc1ccccc1F)NC(=O)[C@@H](NC(=O)CNC(=O)[C@H](CCC(=O)O)NC(=O)C(C)(C)NC(=O)[C@@H](N)Cc1ccc(O)cc1)[C@@H](C)O)[C@@H](C)O)[C@@H](C)CC)[C@@H](C)CC)C(=O)N[C@@H](CCC(=O)O)C(=O)NCC(=O)NCC(=O)N1CCC[C@H]1C(=O)N[C@@H](CO)C(=O)N[C@@H](CO)C(=O)NCC(=O)N[C@@H](C)C(=O)N1CCC[C@H]1C(=O)N1CCC[C@H]1C(=O)N1CCC[C@H]1C(=O)N[C@@H](CO)C(N)=O` [Example 207], the EC50 on hGLP-1R (setting [3]) is 2.98 nM; at hGLP-1R (setting [4]), 0.209 nM; at hGCGR (setting [5]), greater than 9950 nM; at hGCGR (setting [6]), greater than 9950 nM; on hGIPR (setting [7]), 0.591 nM; at hGIPR (setting [10]) it was 0.019 nM. Besides, the Emax was determined as 112% on hGLP-1R (HEK293, 0.1% bovine casein and 1.0% human serum albumin, 37° C., percent of maximal response to GLP-1(7-36)NH2, read-out: hGLP-1R Emax, % ± SEM); 95.1% on hGLP-1R (HEK293, percent of maximal response to GLP-1(7-36)NH2, 37° C., 0.1% bovine casein, arithmetic mean, read-out: hGLP-1R Emax, % ± SEM); 97.9% on hGIPR (setting [8]); 96.2% at hGIPR (setting [9]).
As for `CC[C@H](C)[C@H](NC(=O)[C@H](CCCN)NC(=O)[C@H](CC(=O)O)NC(=O)[C@H](CC(C)C)NC(=O)[C@](C)(CC(C)C)NC(=O)[C@@H](NC(=O)[C@H](CO)NC(=O)[C@H](Cc1ccncc1)NC(=O)[C@H](CC(=O)O)NC(=O)[C@H](CO)NC(=O)[C@@H](NC(=O)[C@](C)(Cc1ccccc1F)NC(=O)[C@@H](NC(=O)CNC(=O)[C@H](CCC(=O)O)NC(=O)C(C)(C)NC(=O)[C@@H](N)Cc1ccc(O)cc1)[C@@H](C)O)[C@@H](C)O)[C@@H](C)CC)C(=O)N[C@@H](C)C(=O)N[C@@H](CCC(N)=O)C(=O)NC(C)(C)C(=O)N[C@@H](CCC(=O)O)C(=O)N[C@@H](Cc1ccccc1)C(=O)N[C@H](C(=O)N[C@@H](CCCCNC(=O)COCCOCCNC(=O)COCCOCCNC(=O)CCCCCCCCCCCCC(=O)O)C(=O)N[C@@](C)(Cc1ccc(O)cc1)C(=O)N[C@@H](CC(C)C)C(=O)N[C@H](C(=O)N[C@@H](CCC(=O)O)C(=O)NCC(=O)NCC(=O)N1CCC[C@H]1C(=O)N[C@@H](CO)C(=O)N[C@@H](CO)C(=O)NCC(=O)N[C@@H](C)C(=O)N1CCC[C@H]1C(=O)N1CCC[C@H]1C(=O)N1CCC[C@H]1C(=O)N[C@@H](CO)C(=O)N[C@@H](CCCCNC(=O)COCCOCCNC(=O)COCCOCCNC(=O)CCCCCCCCCCCCC(=O)O)C(N)=O)[C@@H](C)CC)[C@@H](C)CC` [Example 194], the Emax was 109 ± 10.5% at hGLP-1R (HEK293, read-out: hGLP-1R Emax, % ± SEM, 0.1% bovine casein and 1.0% human serum albumin, 37° C., percent of maximal response to GLP-1(7-36)NH2); 80.7 ± 7.81% on hGIPR (HEK293, read-out: hGIPR Emax, % ± SEM, 0.1% bovine casein and 1.0% human serum albumin, 37° C., percent of maximal response to GIP(1-42)NH2); 93.1 ± 1.05% at hGIPR (setting [2]). Moreover, the EC50 on hGCGR (hGCGR EC50, nM (SEM, n), 0.1% bovine casein and 1.0% human serum albumin, 37° C.) was greater than 9950 nM; at hGCGR (setting [1]), greater than 9950 nM; on hGIPR (hGIPR EC50, nM (SEM, n), 0.1% bovine casein and 1.0% human serum albumin, 37° C.), 1.24 nM.
As for `CC[C@H](C)[C@H](NC(=O)[C@H](CCCN)NC(=O)[C@H](CC(=O)O)NC(=O)[C@H](CC(C)C)NC(=O)[C@](C)(CC(C)C)NC(=O)[C@@H](NC(=O)[C@H](CO)NC(=O)[C@H](Cc1ccncc1)NC(=O)[C@H](CC(=O)O)NC(=O)[C@H](CO)NC(=O)[C@@H](NC(=O)[C@](C)(Cc1ccccc1F)NC(=O)[C@@H](NC(=O)CNC(=O)[C@H](CCC(=O)O)NC(=O)C(C)(C)NC(=O)[C@@H](N)Cc1ccc(O)cc1)[C@@H](C)O)[C@@H](C)O)[C@@H](C)CC)C(=O)N[C@@H](C)C(=O)N[C@@H](CCC(N)=O)C(=O)NC(C)(C)C(=O)N[C@@H](CCCCNC(=O)COCCOCCNC(=O)COCCOCCNC(=O)CCCCCCCCCCCCC(=O)O)C(=O)N[C@@H](Cc1ccccc1)C(=O)N[C@H](C(=O)N[C@H](CCC(=O)O)C(=O)N[C@@](C)(Cc1ccc(O)cc1)C(=O)N[C@@H](CC(C)C)C(=O)N[C@H](C(=O)N[C@@H](CCC(=O)O)C(=O)NCC(=O)NCC(=O)N[C@@H](CCCCNC(=O)COCCOCCNC(=O)COCCOCCNC(=O)CCCCCCCCCCCCC(=O)O)C(=O)N[C@@H](CO)C(=O)N[C@@H](CO)C(=O)NCC(=O)N[C@@H](C)C(=O)N1CCC[C@H]1C(=O)N1CCC[C@H]1C(=O)N1CCC[C@H]1C(=O)N[C@@H](CO)C(N)=O)[C@@H](C)CC)[C@@H](C)CC` [Example 195], the EC50 at hGLP-1R (setting [3]) is 14 nM; on hGLP-1R (setting [4]) it was 0.343 nM; on hGCGR (setting [5]), greater than 9950 nM; on hGCGR (setting [6]), greater than 9950 nM; on hGIPR (setting [7]) it was 0.771 nM; on hGIPR (setting [10]) it was 0.0219 nM. For the same compound, the Emax on hGIPR (setting [8]) is 87 ± 12.2%; at hGIPR (setting [9]), 88.5 ± 4.32%.
